# From US9040485B2, “Synthetic analogues of neural regeneration peptides” (Curonz Holdings Company Limited, priority 2007, dated 2015)
# Entries after “also recorded” stand apart in the source; their conditions may differ. Where a SMILES comes first, the peptide text is derived from it. [ ]: non-standard residue; d: D form. Aib = CC(C)(N)C(=O)O
# Key:
# cerebellar microexplants = assay: Neuronal survival of cerebellar microexplants exposed to the neurotoxin 3-NP (cells having neurites counted); assay type: cell-based, Wistar rat; settings: for neuroprotection after exposure to 3-NP, larger set of data: study of 6 in each group, FIG. 4
# Experimental: (§1) Laminated cerebellar cortices of the two hemispheres were explanted from a P3, P4, P7 or P8 Wistar rat, cut into small pieces in GBSS with 0.65% D(+)glucose solution, and triturated by a 0.4 mm gauge needle and subsequently pressed through a 125 μm pore size sieve. The obtained microexplants were centrifuged (60×g) 2 times for a medium exchange into serum-free BSA-supplemented START V-medium (Biochrom). Finally, the microexplants were reconstituted in 500 μl STARTV-medium. For culturing, 38 μl of the cell suspension was incubated for 1 hour on a poly-D-lysine-coated cover slip in a 35 mm Petri dish under an atmosphere comprising 5% CO2 in air and 100% humidity at 34° C. Subsequently, the injuring toxins (as described below), NRP analogues and 1 ml of STARTV-medium were added, and the cultures were evaluated after 2-3 days of culture.
# (§2) General methods for toxicological and drug administration experiments were designed such that 1/100 parts of toxin and neuroprotective drug were administered simultaneously to the freshly prepared cerebellar microexplants. Glutamate was prepared as a 50 mM stock solution in MilliQ water while 50 mM 3-nitropropionic acid (3-NP) was pH-adjusted (pH 6.8-7.2) in MilliQ water. The concentrations of the oxidative stress inducing toxin, 3-nitropropionic acid (3-NP), and the excitotoxin, glutamate, in the assay were at concentrations of 0.5 mM each. Lyophilized NRP peptides were reconstituted in PBS or 100 μg/ml human transferrin as a 10 μM stock solution. Subsequently, serial dilutions were made. Cerebellar microexplants were cultivated for 48-72 hours at 34° C., 5% CO2 in air and 100% humidity before they were fixed by increasing amounts of paraformaldehyde (0.4%, 1.2%, 3% and 4%—each treatment 2-3 min).
# Using the toxins described above, cerebellar explants were exposed for 24 hours, at the beginning of culturing to dilutions of NRP (survival assay) or NRP and 0.1 μM BrdU (proliferation assay). Subsequently, 80% of the medium was changed without addition of new toxins and NRPs. The cerebellar cultures were fixed as described above after 3 days in vitro. The detection of the incorporated BrdU level is performed as described previously.
# For statistical analysis of survival, four fields (each field having an area of 0.65 mm^2) of each fixed cerebellar culture with the highest cell densities were chosen, and cells displaying neurite outgrowth were counted (survival assay).
# We exposed cell cultures to vehicle alone (open column) the neurotoxin 3-NP alone (shaded column) to 3-NP plus different concentrations of SEQ ID NO:5 (hatched columns) or to 3-NP plus different concentrations of a non-substituted NRP, SEQ ID NO:1 (dark shaded column). We then counted the numbers of cells having neurites as an indicator of neuronal cell survival.
# cerebellar explants = assay: Storage stability: peptide stored 9 weeks at −20° C. or −4° C., then tested for neuroprotection against 3-NP in cerebellar explants; assay type: cell-based, Wistar rat; settings: for stability in storage (retention of neuroprotective activity): 9 weeks, −4° C. compared with −20° C.; for neuroprotective effect against 3-NP after storage at −4° C.: stored 9 weeks at −4° C.; for neuroprotective effect against 3-NP after storage at −4° C. / neuroprotective effect against 3-NP after storage at −20° C.: four concentrations 10^−13 M to 10^−10 M; for neuroprotective effect against 3-NP after storage at −20° C.: stored 9 weeks at −20° C.
# Experimental: as §1, §2
# To determine the stability of NRPs of this invention in storage, we carried out a series of studies using SEQ ID NO:1. In this study, we synthesized SEQ ID NO:1 and then stored the peptide at temperatures of either −20° C. or −4° C. for nine (9) weeks. We then tested the NRP for efficacy in protecting cerebellar neurons against the neurotoxic effect of 3-NP as described above. Cerebellar explants were treated with vehicle alone (open column), the neurotoxic agent 3-NP alone (light stippled column), or 3-NP plus four concentrations of SEQ ID NO:1 that had been stored for 9 weeks at −20° C., or at −4° C.
# In this study, we determined the stability of a substituted NRP, SEQ ID NO:5, in different storage conditions and at different concentrations as with Example 3 above. We synthesized SEQ ID NO:5 and then stored the peptide for 9 weeks at a temperature of either −20° C. or −4° C. We then tested the efficacy of SEQ ID NO:5 in decreasing the neurotoxic effect of 3-NP as described in Examples 2 and 3 above.
# [1] = system: rats with peripheral neuropathy induced by pyridoxine; assay: Pyridoxine-induced peripheral neuropathy, precision beam walk motor deficit score; assay type: in vivo; settings: for motor deficits (beam walking score) versus vehicle: Experiment I: pyridoxine 800 mg/kg/day 8 days, four days after cessation of pyridoxine
# Experimental: Male Sprague-Dawley rats were used and were weighed 278-349 g at the commencement of intoxication with pyridoxine chloride. Before intoxication, rats were habituated to walk across a beam at daily intervals for a week.
# Experiment I: Rats were administered 400 mg/kg pyridoxine chloride dissolved in sterile distilled water adjusted to neutral pH intraperitoneally (i.p) twice daily for 8 days and concurrently the peptide having the sequence SEQ ID NO:5 was administered i.p. for at total of 10 days.
# Experiment II: Rats were administered a higher dose of pyridoxine (1200 mg/kg/day) over a shorter period of time. Pyridoxine chloride dissolved in sterile distilled water adjusted to neutral pH was administered i.p. to the rats at a dose of 600 mg/kg twice daily for 4 days. Concurrently the peptide having the sequence SEQ ID NO:5 was administered for 4 days. On day 5, rats were tested for motor deficits.
# Motor deficits after pyridoxine intoxication and effects of SEQ ID NO:5 were analyzed using a precision beam walk. Seven subsequent foot steps across the 1.5 m long beam were videotaped and according to the positioning of the foot tarsus, these steps were scored between 1 to 4 (1—hind leg tarsus above the beam median; 2—tarsus was touching the upper half of beam medium; 3-tarsus was touching the lower half of beam median and 4—tarsus below the beam median). The score results of all seven steps were added together. A score of 30 was given if the animal was only able to stand on the beam but was unable to walk. In the event of inability to stand on the beam a score of 32 was awarded.
# Experiment I: The two concentrations tested for SEQ ID NO:5 were 40 ng/kg/day and 4 μg/kg/day.
# Experiment II: Saline and SEQ ID NO:5 at a dose of 4 μg/kg/day were tested.
# Motor deficit data were assessed by two-way analysis of variance and Bonferroni post-hoc test. Statistical significance was concluded if p<0.05 between drug treatment cohorts and vehicle treatment.
# [2] = system: SOD-1 mutant (ALS) transgenic mice; assay: Survival of SOD-1 mutant (ALS) transgenic mice, Kaplan-Meier; assay type: in vivo
# From the text: In this series of studies, we examined the effects of SEQ ID NO:5 on mice having a genetic defect (SOD-1) that produces a motor neuron disease similar to that in humans with ALS Animals with this disorder show a progressive loss of motor coordination over time, and ultimately die prematurely of the disease. This animal system is useful in studying effects of agents potentially useful in treating ALS in human beings. Thus, results obtained are highly predictive of results obtained in humans with ALS.
# Mice were randomly allocated to receive either vehicle or SEQ ID NO:5 from the point of disease onset onwards.
# SEQ ID NO:5 treatment (40 μg/kg, given 1/day, i.p. (FIG. 8A) or 0.4 μg/kg, given 1/day, i.p. (FIG. 8B)) was started at the day of onset of the disease.
# [3] = system: mouse model of experimental autoimmune encephalitis (EAE); assay: MOG-induced experimental autoimmune encephalitis (EAE) model of multiple sclerosis, clinical score of neurological impairment; assay type: in vivo, mice, strain C57B1/6J; settings: 0.1 μg peptide/animal (4.16 μg/kg) i.p. daily for 14 days from day 17 after MOG-immunization; outcome 37 days after first treatment; p<0.01 versus treatment day 1 score; FIG. 5
compound,measurement,setting,value
"C[C@H](NC(=O)[C@H](CCCNC(=N)N)NC(=O)[C@H](CCCNC(=N)N)NC(=O)CN)C(=O)N[C@@H](C)C(=O)N1CCC[C@H]1C(=O)NCC(=O)N[C@@H](CCCNC(=N)N)C(=O)NC(C)(C)C(=O)NCC(=O)NCC(N)=O [SEQ ID NO:5, NH2-G^1RRAAPGR-Aib-GG^11-NH2] (H-GRRAAPGR[Aib]GG-NH2)",neuroprotection compared with the unsubstituted NRP,"cerebellar microexplants; 3-NP, FIGS. 1 and 4",more neuroprotective than the unsubstituted NRP
same,concentration of maximal effect on 3-NP-induced neurotoxicity,"cerebellar microexplants; FIG. 1, n=4",about 100 fM
same,threshold concentration for decrease of 3-NP-induced neurotoxicity,"cerebellar microexplants; FIG. 1, n=4",below 1 fM
same,decrease of 3-NP-induced neurotoxicity (cells having neurites),"cerebellar microexplants; different concentrations, 0.5 mM 3-NP, p<0.001, n=4 each, FIG. 1",decreased 3-NP-induced neurotoxicity in a concentration dependent fashion
same,"neuroprotection after exposure to 3-NP, larger set of data",cerebellar microexplants,protect neurons from dying
same,stability in storage (retention of neuroprotective activity),cerebellar explants,not statistically different; also recorded: stable under storage conditions
same,neuroprotective effect against 3-NP after storage at −4° C.,cerebellar explants,retained its neuroprotective effect
same,neuroprotective effect against 3-NP after storage at −20° C.,cerebellar explants,neuroprotective effects similar to those found for SEQ ID NO:1
same,motor deficits (beam walking score) versus control group,"[1]; Experiment I: peptide 4 μg/kg/day, day 16 after start of pyridoxine-intoxication, p<0.05, FIG. 6",significantly less motor deficits than the control group
same,motor deficits (beam walking score) versus vehicle,"[1]; peptide 40 ng/kg/day i.p. 10 days, p<0.05, FIG. 6",attenuated motor deficits
same,motor deficits (beam walking score) versus vehicle,"[1]; peptide 4 μg/kg/day i.p. 10 days, p<0.01, FIG. 6",attenuated motor deficits
same,motor deficits (beam walking score) versus control group,"[1]; Experiment II: pyridoxine 1200 mg/kg/day 4 days, peptide 4 μg/kg/day 4 days, day 5, p<0.001, FIG. 7",highly significantly attenuation of motor deficits
same,tolerability,"[1]; rats, 4 μg/kg/day",well tolerated
same,longest survival of treated mice,"[2]; Study 1, 40 μg/kg 1/day i.p., vehicle all dead by day 143, FIG. 8A",up to 156 days
same,day at which treated mice began dying,"[2]; Study 1, 40 μg/kg 1/day i.p., vehicle day 120, FIG. 8A, p<0.01",131 days
same,longest survival of treated mice,"[2]; Study 2, 0.4 μg/kg 1/day i.p., vehicle all dead at day 154, FIG. 8B",up to 189 days
same,day at which treated mice began to die,"[2]; Study 2, 0.4 μg/kg 1/day i.p., vehicle day 120, FIG. 8B",125 days
same,lifetime of mice suffering from the ALS-like disorder,"[2]; two studies, 40 μg/kg or 0.4 μg/kg 1/day i.p. from disease onset, FIGS. 8A and 8B",significant extension of lifetime
AcNH-RRAAPGRAGG^11-NH2 (Ac-RRAAPGRAGG-NH2) [SEQ ID NO: 7],neuroprotection in in vitro model of neural toxicity induced by 3-NP,cerebellar microexplants; 3-NP,neuroprotective
H-GR[dR]AAPGRAGG-NH2 [SEQ ID NO: 8],neuroprotection in in vitro model of neural toxicity induced by 3-NP,cerebellar microexplants; 3-NP,neuroprotective
"NH2-G^1RRAAPGRAGG^11-NH2 (H-GRRAAPGRAGG-NH2; listed as Homo sapiens) [SEQ ID NO:1, un-substituted comparator, reference compound]",decrease of neurotoxic effects of 3-NP (cells having neurites),"cerebellar microexplants; peptide at 10 fM or 1 pM, 0.5 mM 3-NP, p<0.001, n=4, FIG. 1",significantly decreased the neurotoxic effects of 3-NP
same,"neuroprotection after exposure to 3-NP, larger set of data",cerebellar microexplants,protect neurons from dying
same,stability in storage (retention of neuroprotective activity),cerebellar explants,loses activity over the 9-week period
same,neuroprotective effect against 3-NP after storage at −4° C.,cerebellar explants,little decrease in neurotoxic effect of 3-NP
same,neuroprotective effect against 3-NP after storage at −20° C.,cerebellar explants,neuroprotective effects at all concentrations tested
NH2-G^1RRAAPGRANG^11-NH2 (H-GRRAAPGRANG-NH2) [SEQ ID NO: 6],neuroprotection in in vitro model of neural toxicity induced by 3-NP,cerebellar microexplants; 3-NP,neuroprotective
NH2—REGRRDAPGRAGG-NH2 (H-REGRRDAPGRAGG-NH2) [SEQ ID NO: 12],therapeutic effect on EAE clinical score (severity of motoric impairment),[3],significant therapeutic effect
